Our source for the IC50 values is paper PMC9502754, “Novel Effective Fluorinated Benzothiophene-Indole Hybrid Antibacterials against S. aureus and MRSA Strains” (Pharmaceuticals, 2022).

pIC50: −log10 of the molar value.

The assay addresses T1, MRSA pyruvate kinase (PK) (Staphylococcus aureus, UniProt Q2FG40).
T1 construct: gene pyk; His-tagged MRSA PK from S. aureus USA300 LAC *, pET-28a, expressed in E. coli
T1 sequence (Q2FG40 1-585): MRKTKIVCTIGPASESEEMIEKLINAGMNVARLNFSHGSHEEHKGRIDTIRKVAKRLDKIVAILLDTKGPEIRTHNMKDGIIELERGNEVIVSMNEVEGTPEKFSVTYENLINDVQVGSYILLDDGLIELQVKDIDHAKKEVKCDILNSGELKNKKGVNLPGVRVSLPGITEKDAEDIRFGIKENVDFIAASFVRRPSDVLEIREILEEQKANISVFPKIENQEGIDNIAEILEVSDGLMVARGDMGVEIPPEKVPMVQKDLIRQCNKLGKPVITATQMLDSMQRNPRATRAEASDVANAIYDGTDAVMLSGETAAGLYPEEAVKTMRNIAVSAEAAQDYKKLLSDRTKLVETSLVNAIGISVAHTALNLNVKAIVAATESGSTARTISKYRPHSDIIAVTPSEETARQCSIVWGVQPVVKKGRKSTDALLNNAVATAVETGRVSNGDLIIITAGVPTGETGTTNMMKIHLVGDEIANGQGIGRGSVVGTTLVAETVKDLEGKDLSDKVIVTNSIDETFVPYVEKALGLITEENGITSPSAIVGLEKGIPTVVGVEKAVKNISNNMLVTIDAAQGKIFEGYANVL
The experiment in a line: Kinase-Glo luminescence assay of ATP formed by purified PK from PEP and ADP. The format is biochemical.
As for `Oc1ccc2c(-c3c4cc(F)sc4cc4[nH]c5cc(O)ccc5c34)c[nH]c2c1` [3c, 2-Fluoro-4-(6-hydroxy-1H-indol-3-yl)-9H-thieno[2,3-b]carbazol-7-ol], the pIC50 was 5.80.
Turning to `Fc1cc2c(-c3c[nH]c4ccc(Cl)cc34)c3c(cc2s1)[nH]c1ccc(Cl)cc13` [3f, 6-Chloro-4-(5-chloro-1H-indol-3-yl)-2-fluoro-9H-thieno[2,3-b]carbazole], the pIC50 is 5.68.
`Fc1cc2cc3[nH]c4cc(Cl)ccc4c3c(-c3c[nH]c4cc(Cl)ccc34)c2s1` [4f, 7-Chloro-10-(6-chloro-1H-indol-3-yl)-2-fluoro-5H-thieno[3,2-b]carbazole] showed a pIC50 of 5.64.
In turn, `Fc1cc2c(-c3c[nH]c4ccc(Br)cc34)c3[nH]c4ccc(Br)cc4c3cc2s1` [6d, 8-Bromo-4-(5-bromo-1H-indol-3-yl)-2-fluoro-5H-thieno[3,2-b]carbazole] had a pIC50 of 5.46.
